# Test results: US20060063818A1, “Hydantoin derivatives and deren verwendung als tace inhibitoren” (priority 2002, published 2006)
# Biological target: T1, proTNF-α convertase enzyme (TACE) (Homo sapiens, UniProt P78536)
# T1 construct: a partially purified, isolated enzyme assay, the enzyme being obtained from the membranes of TBP-1; endogenous in cells
# Test: Isolated enzyme assay, proTNF-α convertase (TACE), fluorogenic peptide substrate
# Type: biochemical
# Conditions: partially purified enzyme from membranes of TBP-1; 26° C. for 4 hours; read-out: concentration of compound that gave 50% inhibition of TACE
# Description: Recombinant human proMMP13 may be expressed and purified as described by Knauper et al. [V. Knauper et al., (1996) The Biochemical Journal 271:1544-1550 (1996)]. The purified enzyme can be used to monitor inhibitors of activity as follows: purified proMMP13 is activated using lmM amino phenyl mercuric […] (APMA), 20 hours at 21° C.; the activated MMP13 (11.25 ng per assay) is incubated for 4-5 hours at 35° C. in assay buffer (0.1M Tris-HCl, pH 7.5 containing 0.1M NaCl, 20 mM CaCl2, 0.02 mM ZnCl and 0.05% (w/v) Brij 35 using the synthetic substrate 7-methoxycoumarin-4-yl)acetyl.Pro.Leu.Gly.Leu.N-3-(2,4-dinitrophenyl)-L2,3-diaminopropionyl.Ala.Arg.NH2 in the presence or absence of inhibitors. Activity is determined by measuring the fluorescence at λex 328 nm and λem 393 nm. Percent inhibition is calculated as follows: % Inhibition is equal to the […].
# The ability of the compounds to inhibit proTNF-α convertase enzyme (TACE) may be assessed using a partially purified, isolated enzyme assay, the enzyme being obtained from the membranes of TBP-1 as described by K. M. Mohler et al., (1994) Nature 370:218-220. […] The amount of inhibition is determined as for MMP13 except λex 485 nm and λem 538 nm were used. […]
# T1 sequence (P78536 215-824): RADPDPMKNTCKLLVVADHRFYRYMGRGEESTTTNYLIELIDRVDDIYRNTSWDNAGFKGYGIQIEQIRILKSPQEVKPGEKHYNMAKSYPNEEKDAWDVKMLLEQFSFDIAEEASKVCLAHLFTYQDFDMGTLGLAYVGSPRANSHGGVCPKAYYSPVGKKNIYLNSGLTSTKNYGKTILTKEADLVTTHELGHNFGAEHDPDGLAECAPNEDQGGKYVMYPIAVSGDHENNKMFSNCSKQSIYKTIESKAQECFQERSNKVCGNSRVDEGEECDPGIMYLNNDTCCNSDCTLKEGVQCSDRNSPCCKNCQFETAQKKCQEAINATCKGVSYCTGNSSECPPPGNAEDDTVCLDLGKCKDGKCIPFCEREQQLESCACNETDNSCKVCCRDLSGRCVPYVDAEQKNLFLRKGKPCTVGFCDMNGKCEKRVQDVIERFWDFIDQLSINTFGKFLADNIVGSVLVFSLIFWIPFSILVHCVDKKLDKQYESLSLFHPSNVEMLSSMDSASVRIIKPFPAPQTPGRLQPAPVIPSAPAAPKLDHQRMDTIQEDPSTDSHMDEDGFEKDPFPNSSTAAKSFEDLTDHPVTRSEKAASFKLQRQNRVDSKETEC
compound,measurement,value
"Cc1cc(COc2ccc(C3(C)CCN(CC4(c5ccccc5)NC(=O)NC4=O)C3=O)cc2)c2ccccc2n1 (stereo not shown) [compound 6, 5-{3-Methyl-3-[4-(2-methylquinolin-4-ylmethoxy)phenyl]-2oxopyrrolidin-1-ylmethyl}-5-phenylimidazolidine-2,4-dione]",IC50,130 nM
